How the values were obtained:
CCK2 receptor [1] = target: T1, CCK2 receptor (Homo sapiens, UniProt P32239); test: Binding Assay: competition with [125I]-BH-CCK-8S in HEKZFP cell membranes; conditions: 60 min at 21±3° C., Cheng-Prusoff
T1 construct: Membranes were prepared from the HEKZFP cells after induction; endogenous in cells
T1 sequence (P32239 1-447): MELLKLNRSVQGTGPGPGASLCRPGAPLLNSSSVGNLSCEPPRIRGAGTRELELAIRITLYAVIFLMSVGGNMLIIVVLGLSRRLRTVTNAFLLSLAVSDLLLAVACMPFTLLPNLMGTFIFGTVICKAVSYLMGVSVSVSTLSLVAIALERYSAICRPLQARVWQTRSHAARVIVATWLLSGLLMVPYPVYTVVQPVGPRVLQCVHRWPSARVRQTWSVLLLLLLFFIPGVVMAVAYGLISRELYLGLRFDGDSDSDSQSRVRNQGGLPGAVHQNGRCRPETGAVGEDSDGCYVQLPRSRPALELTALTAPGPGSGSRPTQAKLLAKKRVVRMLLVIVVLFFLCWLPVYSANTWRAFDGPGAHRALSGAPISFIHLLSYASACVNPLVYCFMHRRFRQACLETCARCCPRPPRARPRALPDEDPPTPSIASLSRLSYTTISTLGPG
Description: Zinc Finger Proteins (ZFP) specific for the CCK2R gene were identified by Sangamo Biosciences. The ZFP domain was fused with the herpes simplex virus VP16 activation domain, and the fusion protein was subsequently cloned into the pcDNA3 mammalian expression vector (Invitrogen, San Diego, Calif.). Tet-inducible cell lines expressing the coding region from the ZFP vector were created using the T-REx-293™ cell line (Invitrogen). After 2 weeks of selection in culture medium containing […] Zeocin (Invitrogen), sixty drug-resistant stable clones were isolated and analyzed for ZFP expression as well as CCK2R induction upon addition of doxycycline to the culture medium. The cell line with the most appropriate CCK2R ZFP construct was used in all further assays and was termed the HEKZFP cell line.
HEKZFP cells were grown in DMEM supplemented with L-glutamine (2 mM), penicillin (50 units/mL) and streptomycin (50 μg/mL) and 10% FBS (v/v). HEKZFP cells were treated with […] doxycycline (Sigma-Aldrich, MO; USA) for 2 days to de-repress the tet-regulated expression of the CCK2 receptor selective zinc finger proteins and were harvested using a rubber cell scraper.
Membranes were prepared from the HEKZFP cells after induction. Frozen cell pellets (−40° C.) were thawed in 14 mL of buffer A (10 mM HEPES, 130 mM NaCl, 4.7 mM KCl, 5 mM MgCl, 1 mM EGTA and 15.4 mg/100 mL bacitracin at pH 7.2), adapted from E. A. Harper et al. (Br. J. Pharmacol. (1996) 118(7):1717-1726). The thawed pellets were homogenized using a Polytron PT-10 (7×1 s). The homogenates were centrifuged for 5 min at 1500 rpm (600×g), and the resulting pellets were discarded. The supernatants were re-centrifuged in order to collect the receptor-membrane pellets (25 min 15,000 rpm; 39,000×g), which were re-suspended in buffer A.
All assays were conducted in 96-well plate (GF/B millipore filter plates) using buffer A. For the optimal cell number determination experiments, cells in concentrations ranging from 2.5×10^5 to 12.5×10^5 cells/well were incubated with 20 pM [^125I]-BH-CCK-8S (50 μL 60 pM) solution) in a total volume of 150 μL. Total binding of [^125I]-BH-CCK-8S was determined in the presence of 15 μL of buffer A. Non-specific binding of [^125I]-BH-CCK-8S was determined in the presence of 15 μL of 10 μM YF476, a CCK-2 receptor selective antagonist that is structurally unrelated to the radioligand [^125I]-BH-CCK-8S. The assay preparation was incubated for 1 h at 21±3° C., and then the assay was terminated by rapid filtration of the preparation under reduced pressure. The loaded filters were washed three times using undiluted PBS (100 μL), and then 100 μL of scintillation fluid was added to the filter plate. Bound radioactivity was determined using a Topcount (Packard BioScience, Meriden, Conn.) with a count time of 1 min. From these experiments a cell concentration of 1 pellet in 15 mL of buffer was chosen for use in other assays. To validate the radioligand concentration and incubation time for the assay, saturation and kinetic binding studies were also conducted (see M. F. Morton, The Pharmacological Characterization of Cholecystokinin Receptors in the Human Gastrointestinal Tract. PhD Thesis, University of London, 2000). […] The assay was then terminated according to the procedure outlined above.
The pKi values were determined using the equation of Y.-C. Cheng and W. H. Prusoff (Biochem. Pharmacol., 1973, 22(23):3099-3108):
To circumvent problems associated with computer-assisted data analysis of compounds with low affinity, the data obtained in the current study were weighted according to a method described by Morton. In brief, 100% and 0% specific binding were defined independently using total binding and binding obtained in the presence of a high concentration of the reference antagonist, 2-NAP.

CCK2 receptor [2] = target: T2, CCK2 receptor (Cavia porcellus, UniProt H0VZC5); test: Guinea-Pig Gastric Corpeal Muscle Assay (isolated muscle strip, pentagastrin-induced contraction); format: cell-based; conditions: CCK1 receptors blocked
T2 construct: strips of muscle were dissected and suspended in isolated tissue organ baths; from tissue; host or cells: guinea-pig gastric corpeal muscle strips
T2 sequence (H0VZC5 1-426): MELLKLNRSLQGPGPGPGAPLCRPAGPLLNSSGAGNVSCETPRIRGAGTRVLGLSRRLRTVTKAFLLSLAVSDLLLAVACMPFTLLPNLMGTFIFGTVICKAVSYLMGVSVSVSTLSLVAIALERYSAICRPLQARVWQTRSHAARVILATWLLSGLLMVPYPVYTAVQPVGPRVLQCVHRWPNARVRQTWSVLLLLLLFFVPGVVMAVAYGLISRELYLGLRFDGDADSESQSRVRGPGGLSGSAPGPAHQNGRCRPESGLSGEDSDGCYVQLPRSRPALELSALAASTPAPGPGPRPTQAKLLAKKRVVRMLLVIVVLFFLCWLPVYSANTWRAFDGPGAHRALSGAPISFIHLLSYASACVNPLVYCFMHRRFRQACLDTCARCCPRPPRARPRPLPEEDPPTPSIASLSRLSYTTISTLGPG
Description: Guinea-Pig Gastric Corpeal Muscle Assay
CCK2 receptor-mediated muscle contraction was measured in an isolated muscle-strip assay of guinea-pig gastric corpeal muscle according to the methods described by Roberts et al. (S. P. Roberts, E. A. Harper, G. F. Watt, V. P. Gerskowitch, R. A. Hull, N. P. Shankley, and J. W. Black, Br. J. Pharmacol., 1996, 118(7):1779-1789). In brief, strips of muscle were dissected and suspended in isolated tissue organ baths for isotonic muscle contraction recording. The baths, containing Krebs-Henseleit solution, were maintained at 24° C. and gassed continuously with 95% O2 and 5% CO2. CCK1 receptors known to be present in this assay were blocked using a selective concentration of a suitable CCK1 receptor antagonist (e.g. 2-NAP). The effectiveness of the test compounds was assessed by measuring their effect on contractile concentration-response curves obtained using a well-characterized surrogate for the hormone gastrin (pentagastrin).

pKi (CCK2 receptor [1]): 7.6
pK8 value (CCK2 receptor [2]; antagonism of pentagastrin concentration-response curves, 24° C.): 8.8
behaviour in the muscle contraction assay (CCK2 receptor [2]; pentagastrin concentration-response curves): competitive antagonist
Compound: O=C(c1ccc(Br)cc1NS(=O)(=O)c1cccc2nsnc12)N1CCCCC1 [Example 5, Benzo[1,2,5]thiadiazole-4-sulfonic acid [5-bromo-2-(piperidine-1-carbonyl)-phenyl]-amide]

Source: US7550492B2, “Benzo[1,2,5]thiadiazole compounds” (Janssen Pharmaceutica N.V., priority 2003, dated 2009)
